From ChEMBL document CHEMBL1201862, “PubChem BioAssay data set” (2004)
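Compound exposure: 48 hours, 5 concentrations, 96-well plates. GI50: concentration for 50% inhibition of growth.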 Activity calls are given as the source filed them. Rule as the data show it: active = GI50 up to about 1.1 µM and inactive = higher.

Legend:
Assay in all cases: growth of human tumour cells (NCI), 48 h
786-0 = tested on: 786-0
A549 = tested on: A549
ACHN = tested on: ACHN
CAKI-1 = tested on: CAKI-1
COLO 205 = tested on: COLO 205
EKVX = tested on: EKVX
KM12 = tested on: KM12
MDA-N = tested on: MDA-N
NCI-H460 = tested on: NCI-H460
NCI-H522 = tested on: NCI-H522
NCI/ADR-RES = tested on: NCI/ADR-RES
PC-3 = tested on: PC-3
RPMI-8226 = tested on: RPMI-8226
RXF 393 = tested on: RXF 393
SF-268 = tested on: SF-268
SK-MEL-5 = tested on: SK-MEL-5
SK-OV-3 = tested on: SK-OV-3
T47D = tested on: T47D
UO-31 = tested on: UO-31
HCC 2998 = tested on: HCC 2998

SMILES	GI50 (786-0)	GI50 (A549)	GI50 (ACHN)	GI50 (CAKI-1)	GI50 (COLO 205)	GI50 (EKVX)	GI50 (KM12)	GI50 (MDA-N)	GI50 (NCI-H460)	GI50 (NCI-H522)	GI50 (NCI/ADR-RES)	GI50 (PC-3)	GI50 (RPMI-8226)	GI50 (RXF 393)	GI50 (SF-268)	GI50 (SK-MEL-5)	GI50 (SK-OV-3)	GI50 (T47D)	GI50 (UO-31)	GI50 (HCC 2998)
N#Cc1cc(-c2nc3c(F)cccc3s2)ccc1N	> 100 µM (inactive)	> 100 µM (inactive)	> 100 µM (inactive)	46 µM (inactive)	71.4 µM (inactive)	< 0.01 µM (active)	65.3 µM (inactive)	47.8 µM (inactive)	20.5 µM (inactive)	> 100 µM (inactive)	> 100 µM (inactive)	> 100 µM (inactive)	> 100 µM (inactive)	> 100 µM (inactive)	> 100 µM (inactive)	56.4 µM (inactive)	> 100 µM (inactive)	0.912 µM (active)	> 100 µM (inactive)	
O=[N+]([O-])c1cccc(CSc2nc(O)c3nc[nH]c3n2)c1	> 100 µM (inactive)	> 100 µM (inactive)	> 100 µM (inactive)	> 100 µM (inactive)	> 100 µM (inactive)	> 100 µM (inactive)	> 100 µM (inactive)	> 100 µM (inactive)	> 100 µM (inactive)	76.6 µM (inactive)	> 100 µM (inactive)	> 100 µM (inactive)	> 100 µM (inactive)	> 100 µM (inactive)	> 100 µM (inactive)	> 100 µM (inactive)	> 100 µM (inactive)	> 100 µM (inactive)	> 100 µM (inactive)	
Nc1ccc(Oc2ccc(C34CC5CC(C3)CC(c3ccc(Oc6ccc(N)cc6C(F)(F)F)cc3)(C5)C4)cc2)c(C(F)(F)F)c1	31.6 µM (inactive)	19.1 µM (inactive)	32.9 µM (inactive)	28.1 µM (inactive)	19.1 µM (inactive)	15.5 µM (inactive)	21 µM (inactive)	36.6 µM (inactive)	18.4 µM (inactive)	14.4 µM (inactive)	21.7 µM (inactive)	14.8 µM (inactive)		11.1 µM (inactive)	17.4 µM (inactive)	22 µM (inactive)	15.6 µM (inactive)	15.1 µM (inactive)	39.1 µM (inactive)	
CC(=O)Nc1ncc2c(n1)-c1ccccc1OC2	65.9 µM (inactive)	> 100 µM (inactive)	54.3 µM (inactive)	> 100 µM (inactive)	> 100 µM (inactive)	> 100 µM (inactive)	> 100 µM (inactive)	> 100 µM (inactive)	> 100 µM (inactive)	> 100 µM (inactive)	> 100 µM (inactive)	> 100 µM (inactive)	> 100 µM (inactive)	> 100 µM (inactive)	80.7 µM (inactive)	> 100 µM (inactive)	> 100 µM (inactive)	> 100 µM (inactive)	> 100 µM (inactive)	
OC1(C2(c3ccc(Cl)cc3)CCCC2)c2ccccc2C2=NCCN21 (stereo not given)	14.3 µM (inactive)	15.8 µM (inactive)	16.7 µM (inactive)	14.8 µM (inactive)	10.3 µM (inactive)	16.9 µM (inactive)	18.1 µM (inactive)	16.1 µM (inactive)	14.3 µM (inactive)	16.2 µM (inactive)	17.1 µM (inactive)	11.9 µM (inactive)		1.68 µM (inactive)	17.5 µM (inactive)	12.4 µM (inactive)	18.8 µM (inactive)	6.43 µM (inactive)	11.7 µM (inactive)	2.4 µM (inactive)
COc1cc2c(cc1OC)[C@@](C)(C(O)C(O)C(C)(C)O)NCC2 (stereo not given in full)	> 100 µM (inactive)	> 100 µM (inactive)	> 100 µM (inactive)	> 100 µM (inactive)	> 100 µM (inactive)	> 100 µM (inactive)		> 100 µM (inactive)		> 100 µM (inactive)	> 100 µM (inactive)	> 100 µM (inactive)	> 100 µM (inactive)	> 100 µM (inactive)	> 100 µM (inactive)	> 100 µM (inactive)	> 100 µM (inactive)	> 100 µM (inactive)	> 100 µM (inactive)	
C(=N\c1ccc(-c2nc3ccccc3[nH]2)cc1)/c1ccco1	> 100 µM (inactive)	> 100 µM (inactive)	> 100 µM (inactive)	> 100 µM (inactive)	43.9 µM (inactive)	> 100 µM (inactive)	48.6 µM (inactive)	48.1 µM (inactive)		53.1 µM (inactive)	84.9 µM (inactive)	33.6 µM (inactive)	34.8 µM (inactive)	73.8 µM (inactive)	> 100 µM (inactive)	25.5 µM (inactive)		38.5 µM (inactive)	75.7 µM (inactive)	76.4 µM (inactive)
COc1cc(/C=N\N(C)C)cc(/C=N/N(C)C)c1O	24.4 µM (inactive)	> 100 µM (inactive)	21.3 µM (inactive)	21.1 µM (inactive)	17.1 µM (inactive)		> 100 µM (inactive)	25.9 µM (inactive)	30.1 µM (inactive)	65.9 µM (inactive)	25.4 µM (inactive)	16.4 µM (inactive)	19.6 µM (inactive)	43.1 µM (inactive)	38.5 µM (inactive)	26.2 µM (inactive)	15.5 µM (inactive)	1.98 µM (inactive)	22 µM (inactive)	
COC(=O)c1sc2c(Cl)c(Cl)sc2c1Cl	43.8 µM (inactive)	> 100 µM (inactive)	> 100 µM (inactive)	> 100 µM (inactive)	> 100 µM (inactive)	> 100 µM (inactive)	> 100 µM (inactive)	> 100 µM (inactive)	> 100 µM (inactive)	> 100 µM (inactive)	> 100 µM (inactive)	> 100 µM (inactive)		> 100 µM (inactive)	> 100 µM (inactive)	> 100 µM (inactive)	> 100 µM (inactive)	> 100 µM (inactive)	> 100 µM (inactive)	> 100 µM (inactive)
CCCc1cc(=O)oc2c3c(c4c(c12)OC(C)(C)CC4)O[C@H](C)[C@@H](C)[C@H]3O	15.7 µM (inactive)	20 µM (inactive)		20.5 µM (inactive)	15.7 µM (inactive)	12.6 µM (inactive)	12.8 µM (inactive)	5.56 µM (inactive)	19 µM (inactive)		11.2 µM (inactive)	10.1 µM (inactive)	4.82 µM (inactive)	21.3 µM (inactive)	17.4 µM (inactive)	15.1 µM (inactive)	17.5 µM (inactive)	12 µM (inactive)	13.8 µM (inactive)	16.6 µM (inactive)
O=C(O)CC1OCC=C2C[N+]3([O-])CCC45c6ccccc6NC4C1C2CC53 (stereo not given)	> 100 µM (inactive)	> 100 µM (inactive)	> 100 µM (inactive)	> 100 µM (inactive)	> 100 µM (inactive)	> 100 µM (inactive)	> 100 µM (inactive)	> 100 µM (inactive)	> 100 µM (inactive)	> 100 µM (inactive)	> 100 µM (inactive)	> 100 µM (inactive)	> 100 µM (inactive)	> 100 µM (inactive)	> 100 µM (inactive)	> 100 µM (inactive)	> 100 µM (inactive)	> 100 µM (inactive)	> 100 µM (inactive)	
CC(O)CN1c2ccccc2Sc2ccccc21 (stereo not given)	> 100 µM (inactive)	> 100 µM (inactive)	> 100 µM (inactive)	> 100 µM (inactive)	> 100 µM (inactive)	> 100 µM (inactive)	> 100 µM (inactive)	> 100 µM (inactive)	> 100 µM (inactive)	> 100 µM (inactive)	> 100 µM (inactive)	> 100 µM (inactive)		> 100 µM (inactive)	> 100 µM (inactive)	> 100 µM (inactive)	> 100 µM (inactive)	> 100 µM (inactive)	> 100 µM (inactive)	> 100 µM (inactive)
ClC(Cl)(Cl)C1CCOC1n1nnc2ccccc21 (stereo not given)	> 100 µM (inactive)	63 µM (inactive)		> 100 µM (inactive)	> 100 µM (inactive)	> 100 µM (inactive)		> 100 µM (inactive)		82.4 µM (inactive)	42.2 µM (inactive)	> 100 µM (inactive)		> 100 µM (inactive)	> 100 µM (inactive)	45.2 µM (inactive)	> 100 µM (inactive)	> 100 µM (inactive)		> 100 µM (inactive)
OCC1OC(c2cccc3cc(O)c(O)cc23)CC1O (stereo not given)	> 100 µM (inactive)	> 100 µM (inactive)	> 100 µM (inactive)			45.4 µM (inactive)	> 100 µM (inactive)	> 100 µM (inactive)	80.7 µM (inactive)	> 100 µM (inactive)	> 100 µM (inactive)	> 100 µM (inactive)	> 100 µM (inactive)		93.1 µM (inactive)		> 100 µM (inactive)	> 100 µM (inactive)	> 100 µM (inactive)	> 100 µM (inactive)
CC1CC[C@@]2(OC1)OC1CC3C4CCC5C[C@@H](OC6OC(CO)C(OC7OC(CO)C(O)C(OC8OC(CO)C(O)C(OC9OC(CO)C(O)C(O)C9O)C8O)C7OC7OC(CO)C(O)C(O)C7O)C(O)C6O)[C@H](O)C[C@]5(C)C4CC[C@]3(C)C1[C@@H]2C (stereo not given in full)	> 80.5 µM (inactive)	> 80.5 µM (inactive)	> 80.5 µM (inactive)	> 80.5 µM (inactive)	> 80.5 µM (inactive)	> 80.5 µM (inactive)	> 80.5 µM (inactive)	> 80.5 µM (inactive)	> 80.5 µM (inactive)		> 80.5 µM (inactive)	> 80.5 µM (inactive)		> 80.5 µM (inactive)	> 80.5 µM (inactive)	> 80.5 µM (inactive)	> 80.5 µM (inactive)	> 80.5 µM (inactive)		> 80.5 µM (inactive)
